Like-named read-outs stand apart in the source and are kept apart here.
How the values were obtained:
[1] = tested on: Key Broadleaf Weed and Crop Species; experiment: Post-emergent Test II herbicidal activity (Table 5); assay type: in vivo; conditions: post-emergence, 336 h, post-emergent, 14 days after application; for pest or weed control at 70 g/ha: 70 g ai/ha; for pest or weed control at 140 g/ha: 140 g ai/ha
Method in brief: (§1)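 Compounds, dissolved in 97:3 acetone/DMSO and diluted into an aqueous carrier containing crop oil concentrate and Triton X-155, are applied over the top of young plants at 187 L/ha. Injury is scored visually at 14 d, 0% meaning no effect and 100% complete kill.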

[2] = tested on: Key Grass and Sedge Weeds as well as Grass Crops; experiment: Post-emergent Test II herbicidal activity (Table 6); assay type: in vivo; conditions: post-emergence, 336 h; for pest or weed control at 70 g/ha: application rate 70 g ai/ha; for pest or weed control at 140 g/ha: application rate 140 g ai/ha
Method in brief: as §1

[3] = ABUTH: velvetleaf (Abutilon theophrasti), read-out: Visual Growth Reduction (%) 14 Days After Application ABUTH
[4] = AMARE: redroot pigweed (Amaranthus retroflexus), read-out: Visual Growth Reduction (%) 14 Days After Application AMARE
[5] = BRSNN: oilseed-rape, canola (Brassica napus), read-out: Visual Growth Reduction (%) 14 Days After Application BRSNN
[6] = CHEAL: lambsquarters (Chenopodium album), read-out: Visual Growth Reduction (%) 14 Days After Application CHEAL
[7] = EPHHL: wild poinsettia (Euphorbia heterophylla), read-out: Visual Growth Reduction (%) 14 Days After Application EPHHL
[8] = HELAN: sunflower (Helianthus annuus), read-out: Visual Growth Reduction (%) 14 Days After Application HELAN
[9] = VIOTR: wild pansy (Viola tricolor), read-out: Visual Growth Reduction (%) 14 Days After Application VIOTR
[10] = CYPES: yellow nutsedge (Cyperus esculentus), read-out: Visual Growth Reduction (%) 14 Days After Application, CYPES
[11] = DIGSA: crabgrass (Digitaria sanguinalis), read-out: Visual Growth Reduction (%) 14 Days After Application, DIGSA
[12] = ECHCG: barnyardgrass (Echinochloa crus-galli), read-out: Visual Growth Reduction (%) 14 Days After Application, ECHCG
[13] = ORYSA: rice (Oryza sativa), read-out: Visual Growth Reduction (%) 14 Days After Application, ORYSA
[14] = SETFA: giant foxtail (Setaria faberi), read-out: Visual Growth Reduction (%) 14 Days After Application, SETFA
[15] = SORVU: grain sorghum (Sorghum vulgare), read-out: Visual Growth Reduction (%) 14 Days After Application, SORVU
[16] = TRZSS (wheat, Triticum aestivum), read-out: Visual Growth Reduction (%) 14 Days After Application, TRZSS
[17] = ZEAMX: maize, corn (Zea mays), read-out: Visual Growth Reduction (%) 14 Days After Application, ZEAMX
[18] = Triticum aestivum, TRZSS (wheat), read-out: Visual Growth Reduction (%) 14 Days After Application, TRZSS

Compound | pest or weed control at 70 g/ha [1, 3] [%] | pest or weed control at 140 g/ha [1, 3] [%] | pest or weed control at 70 g/ha [1, 4] [%] | pest or weed control at 140 g/ha [1, 4] [%] | pest or weed control at 70 g/ha [1, 5] [%] | pest or weed control at 140 g/ha [1, 5] [%] | pest or weed control at 70 g/ha [1, 6] [%] | pest or weed control at 140 g/ha [1, 6] [%] | pest or weed control at 70 g/ha [1, 7] [%] | pest or weed control at 140 g/ha [1, 7] [%] | pest or weed control at 70 g/ha [1, 8] [%] | pest or weed control at 140 g/ha [1, 8] [%] | pest or weed control at 70 g/ha [1, 9] [%] | pest or weed control at 140 g/ha [1, 9] [%] | pest or weed control at 70 g/ha [2, 10] [%] | pest or weed control at 140 g/ha [2, 10] [%] | pest or weed control at 70 g/ha [2, 11] [%] | pest or weed control at 140 g/ha [2, 11] [%] | pest or weed control at 70 g/ha [2, 12] [%] | pest or weed control at 140 g/ha [2, 12] [%] | other results
COC(=O)c1nc(-c2ccc(C#N)cc2F)c(F)c(N)c1Cl [Compound 44, Methyl 4-amino-3-chloro-6-(4-cyano-2-fluorophenyl)-5-fluoropicolinate] | 30 to 44 | 60 to 74 | 75 to 84 | 95 to 100 | 0 to 29 | 0 to 29 | 75 to 84 | 85 to 94 | 85 to 94 | 95 to 100 | 85 to 94 | 95 to 100 | 0 to 29 | 0 to 29 | 30 to 44 | 45 to 59 | 0 to 29 | 0 to 29 | 0 to 29 | 0 to 29 | pest or weed control at 70 g/ha [2, 13]: 0 to 29%; pest or weed control at 140 g/ha [2, 13]: 0 to 29%; pest or weed control at 70 g/ha [2, 14]: 0 to 29%; pest or weed control at 140 g/ha [2, 14]: 0 to 29%; pest or weed control at 70 g/ha [2, 15]: 0 to 29%; pest or weed control at 140 g/ha [2, 15]: 0 to 29%; pest or weed control at 70 g/ha [2, 16]: 30 to 44%; pest or weed control at 140 g/ha [2, 16]: 30 to 44%; pest or weed control at 70 g/ha [2, 17]: 0 to 29%; pest or weed control at 140 g/ha [2, 17]: 0 to 29%
COC(=O)c1nc(-c2ccc(Br)c(F)c2)cc(N)c1Cl [Compound 115, methyl 4-amino-6-(4-bromo-3-fluorophenyl)-3-chloropicolinate] | 85 to 94 | 85 to 94 | 95 to 100 | 95 to 100 | 60 to 74 | 75 to 84 | 95 to 100 | 95 to 100 | 95 to 100 | 95 to 100 | 85 to 94 | 95 to 100 | 95 to 100 | 95 to 100 | 95 to 100 | 95 to 100 | 85 to 94 | 85 to 94 | 85 to 94 | 85 to 94 | pest or weed control at 70 g/ha [2, 18]: 0 to 29%; pest or weed control at 140 g/ha [2, 18]: 0 to 29%; pest or weed control at 70 g/ha [2, 13]: 0 to 29%; pest or weed control at 140 g/ha [2, 13]: 0 to 29%; pest or weed control at 70 g/ha [2, 14]: 0 to 29%; pest or weed control at 140 g/ha [2, 14]: 0 to 29%; pest or weed control at 70 g/ha [2, 15]: 85 to 94%; pest or weed control at 140 g/ha [2, 15]: 95 to 100%; pest or weed control at 70 g/ha [2, 17]: 0 to 29%; pest or weed control at 140 g/ha [2, 17]: 0 to 29%
COC(=O)c1nc(-c2cc(F)c(C#N)cc2F)c(F)c(N)c1Cl [Compound 198] | 60 to 74 | 75 to 84 | 60 to 74 | 95 to 100 | 75 to 84 | 75 to 84 | 85 to 94 | 95 to 100 | 45 to 59 | 60 to 74 | 95 to 100 | 95 to 100 | 30 to 44 | 60 to 74 | 60 to 74 | 60 to 74 | 0 to 29 | 0 to 29 | 0 to 29 | 0 to 29 | pest or weed control at 70 g/ha [2, 13]: 0 to 29%; pest or weed control at 140 g/ha [2, 13]: 0 to 29%; pest or weed control at 70 g/ha [2, 14]: 0 to 29%; pest or weed control at 140 g/ha [2, 14]: 0 to 29%; pest or weed control at 70 g/ha [2, 15]: 0 to 29%; pest or weed control at 140 g/ha [2, 15]: 0 to 29%; pest or weed control at 70 g/ha [2, 16]: 30 to 44%; pest or weed control at 140 g/ha [2, 16]: 45 to 59%; pest or weed control at 70 g/ha [2, 17]: 0 to 29%; pest or weed control at 140 g/ha [2, 17]: 0 to 29%

From patent US9113629B2, “4-amino-6-(4-substituted-phenyl)-picolinates and 6-amino-2-(4-substituted-phenyl)-pyrimidine-4-carboxylates and their use as herbicides” (DOW AGROSCIENCES LLC, priority 2013, dated 2015)
